Tests used:
[1] = test system: MUC1* extracellular domain - NME1 dimers / NME7AB interaction; test: direct binding (gold nanoparticle) assay of MUC1*-NME interaction; set-up: species or system human; details: previously shown
Text: WO2009/042815 discloses that in a direct binding assay a series of carboline molecules inhibited the interaction between the extracellular domain of MUC1* and NME proteins, especially NME1 dimers and NME7AB. […] We tested a panel of ten small molecules, including three carbolines (FIG. 1), and biologicals for their ability to inhibit naïve stem cell pluripotency or growth compared to primed state stem cells.
Most of the novel compounds of the invention are carbolines or carboline-like molecules. […] However, in our nanoparticle assay, we can only determine that a compound disrupts the interaction between MUC1* extracellular domain peptide and NME1 dimers or NME7AB. We cannot tell if the compound does so by binding to MUC1* or its ligand. Recall that our compound hits are first identified in the stem cell drug screening assay for their ability to inhibit stem cell pluripotency or proliferation. […]
Recall that we had previously shown that some carbolines inhibited the binding of ligands NME1 or NME7AB to the extracellular domain of the MUC1* growth factor receptor. The assay we used was a gold nanoparticle assay that only gives a readout when the targeted interaction is disrupted, so it could not determine whether the carboloines disrupted binding of MUC1* to its ligands by binding to the ligand, NME7AB, or to MUC1*. […]

[2] = test system: PC-3 prostate cancer cells; test: cancer cell migration assay with Fabs and N-10 peptide; type: cell-based; details: FIG. 140
Procedure: (§1) The cancer sub-types that were tested were CHL-1 melanoma (MUC1*^+/NME7^+/NME7-X1^+), A2058 melanoma (MUC1*^+/NME7AB^+/NME7-X1^++), SK-OV-3 ovarian cancer (MUC1*^+/NME7^+/NME7-X1^+), A549 lung cancer (MUC1*^LO), T47D breast cancer (MUC1*^+++/NME7AB^+++/NME7-X1^+++), DU145 (MUC1*^++/NME7AB^+++/NME7-X1^+++) prostate cancer and PC-3 (MUC1*^−/NME7AB^+++/NME7-X1^+++) prostate cancer cells.
(§2) For the cancer cell migration experiment cancer cells were plated at varying densities into an Oris Cell Migration Assay Collagen-1 coated 96-well plate (Platypus Technologies LLC, Madison, Wis.). The Collagen-1 coated 96-well plate incorporates a specific vacuum plug which attaches to the bottom of each well, creating an area in which the cells cannot grow into. Once the cells have been plated at high densities into each well, they are allotted an 18-24 hour time period to attach to the bottom of the wells. Post-24 hour plugs are removed from the plate and then small molecule analogs are added to the wells. Images are taken of each well and represent time 0 (T=0) for each well. Images are taken of the wells at the 24, 48, 72, 96 and 120 hour time points. […] Images are imported into ImageJ (Rasband, W. S., ImageJ, U. S. National Institutes of Health, Bethesda, Md., USA, http://imagej.nih.gov/ij/, 1997-2016.) and the area remaining free of cells is calculated. […]

[3] = test system: DU145 prostate cancer cells; test: as above; type: cell-based; details: FIG. 140
Procedure: as §1, §2

T47D breast cancer cells = test: cancer cell migration, invasion assay (Platypus/Oris system); type: cell-based, human; details: FIG. 140
Procedure: We then tested an expanded panel of agents, including agents known to inhibit cancer growth or migration (FIG. 17) (Horm et al., 2012; Meng & Yue, 2014; Zhen et al., 2014), which is characteristic of aggressive or metastatic cancers. We also synthesized a series of novel small molecules, tested them in the stem cell drug screening assay, and then synthesized analogs of the best hits. These small molecules are pictured in FIGS. 18-27. Both the known compounds and the novel compounds were tested in the stem cell drug screening assay. The effects of the small molecules on naïve versus primed state stem cells are shown in the photographs of FIGS. 29-72. The small molecules pictured in FIGS. 17-27 and the biologicals were also tested in a cancer cell migration assay. A structure activity relationship table is seen in FIG. 28. Potent cancer cell migration is characteristic of cancer cell invasion of other tissues and of metastasis. Typical migration assays involve coating a cell culture plate with fibronectin, collagen or the like, plating cancer cells and making a scar across through the cells and measuring the time it takes for the cancer cells to invade the void space. An alternative approach that gives more reliable data is the Platypus System which is a special multi-well cell culture plate with a juxtaposed set of plugs that block off a circle in the center of each well. Cancer cells are plated while the plugs are in place, then they are removed after the cells attach to the plate surface. […] A bar graph summarizing the results of the known anti-migration compounds compared to the anti-MUC1* Fab E6 and the first few small molecules synthesized is shown in FIG. 73. The effect of two novel small molecules MN1186 and MN1194, compared to the known anti-migration molecule SU11274, is shown in FIG. 75A-75U. FIG. 75V is a graph showing the measured inhibition of cancer cell migration at time 0, 24 hours or 48 hours for a number of compounds. […] FIG. 75X is a graph showing how IC50's of the small molecules of the invention were measured and calculated.
Percent inhibition of cancer cell migration was performed in a wound healing assay. The Percent area that the invading cancer cells occupied, in the presence of a drug candidate compared to the controls, was quantified by Image J cell software which enables cell counting from photographs. IC50's were calculated by performing migration experiments at several compound concentrations and then applying Hill's equation. Inhibition of cancer cell proliferation was quantified by automated cell counting in the presence or absence of a drug candidate. Here, the potency of the drug candidate was simply scored 4 for the highest degree of inhibition and 0 for the lowest. […] The effect of each drug candidate was scored 0-4, with 4 being the highest in inhibiting cell proliferation (FIG. 28).
For the cancer cell migration experiment cancer cells were plated at varying densities into an Oris Cell Migration Assay Collagen-1 coated 96-well plate (Platypus Technologies LLC, Madison, Wis.). The Collagen-1 coated 96-well plate incorporates a specific vacuum plug which attaches to the bottom of each well, creating an area in which the cells cannot grow into. Once the cells have been plated at high densities into each well, they are allotted an 18-24 hour time period to attach to the bottom of the wells. Post-24 hour plugs are removed from the plate and then small molecule analogs are added to the wells. Images are taken of each well and represent time 0 (T=0) for each well. Images are taken of the wells at the 24, 48, 72, 96 and 120 hour time points. Data analysis is conducted using the images taken at these specific time point. Images are imported into ImageJ (Rasband, W. S., ImageJ, U. S. National Institutes of Health, Bethesda, Md., USA, http://imagej.nih.gov/ij/, 1997-2016.) and the area remaining free of cells is calculated. […]

N-10 peptide: truncated MUC1* extracellular domain peptide QFNQYKTEAASRYNLTISDVSVSDVPFPFSAQSGA (SEQ ID NO:4) (N-10 peptide of PSMGFR in which ten amino acids at the N-terminus has been removed)
competitive inhibition of NME ligand binding to MUC1* extracellular domain [1]: inhibits their binding to their cognate receptors including the MUC1* extracellular domain
inhibition of migration of PC-3 cells by Fabs and peptide [2]: only the N-10 peptide inhibited migration
inhibition of migration of DU145 prostate cancer cells by Fabs and peptide [3]: inhibited migration
inhibition of migration of T47D cells by Fabs and peptide (T47D breast cancer cells): inhibited migration

— patent US11931347B2, “Method of screening for agents for differentiating stem cells” (MINERVA BIOTECHNOLOGIES CORPORATION, priority 2015, dated 2024)
